In publication PMC8699473, “An Easily Expandable Multi-Drug LC-MS Assay for the Simultaneous Quantification of 57 Oral Antitumor Drugs in Human Plasma” (Cancers, 2021):

Assay: Short-term stability in spiked pooled human plasma (bench-top, 4 °C, 56 °C)

Structure (SMILES)	Short-time stability (1h, 56°C) Accuracy [%] (validation standard 2xLLOV)	Short-time stability (24h, 4°C, without daylight) Accuracy [%] (validation standard 2xLLOV)	Short-time stability (24h, RT, with daylight) Accuracy [%] (validation standard 2xLLOV)	Short-time stability (24h, RT, without daylight) Accuracy [%] (validation standard 2xLLOV)	Short-time stability (1h, 56°C) Accuracy [%] (validation standard LLOV)	Short-time stability (24h, 4°C, without daylight) Accuracy [%] (validation standard LLOV)	Short-time stability (24h, RT, with daylight) Accuracy [%] (validation standard LLOV)	Short-time stability (24h, RT, without daylight) Accuracy [%] (validation standard LLOV)	Short-time stability (1h, 56°C) Accuracy [%] (validation standard MOV)	Short-time stability (24h, 4°C, without daylight) Accuracy [%] (validation standard MOV)	Short-time stability (24h, RT, with daylight) Accuracy [%] (validation standard MOV)	Short-time stability (24h, RT, without daylight) Accuracy [%] (validation standard MOV)	Short-time stability (1h, 56°C) Accuracy [%] (validation standard ULOV)	Short-time stability (24h, 4°C, without daylight) Accuracy [%] (validation standard ULOV)	Short-time stability (24h, RT, with daylight) Accuracy [%] (validation standard ULOV)	Short-time stability (24h, RT, without daylight) Accuracy [%] (validation standard ULOV)
CS(=O)(=O)CCNCc1ccc(-c2ccc3ncnc(Nc4ccc(OCc5cccc(F)c5)c(Cl)c4)c3c2)o1 [Lapatinib]	19.2	96.4	46.9	53.0	-24.8	92.5	5.2	14.4	46.1	97.9	93.5	109.4	42.5	94.3	100.7	112.4
COC(=O)N[C@@H](C)CNc1nccc(-c2cn(C(C)C)nc2-c2cc(Cl)cc(NS(C)(=O)=O)c2F)n1 [Encorafenib]	54.9	106.5	109.5	112.9		110.1	108.1	104.0	54.0	102.1	105.9	109.8	44.5	98.5	108.8	108.3
CNC(=O)c1ccc(N2C(=S)N(c3cnc(C#N)c(C(F)(F)F)c3)C(=O)C23CCC3)cc1F [Apalutamide]	46.5	93.0	76.8	80.8	37.6	96.9	72.0	75.7	41.2	84.3	75.7	75.2	29.0	84.2	63.9	63.8
COc1cc2ncnc(Nc3ccc(F)c(Cl)c3)c2cc1OCCCN1CCOCC1 [Gefitinib]	46.0	97.4	91.9	92.1	33.3	90.9	83.0	83.7	49.1	103.4	96.2	93.8	42.1	94.9	88.3	87.7
Cc1[nH]c2ccccc2c1CCNCc1ccc(/C=C/C(=O)NO)cc1 [Panobinostat]	27.6	81.5	53.1	45.4	1.9	66.1	-0.2	52.8	48.8	93.6	92.2	96.2	46.3	89.2	96.0	100.4
Nc1cccc2c1C(=O)N(C1CCC(=O)NC1=O)C2=O (stereo not drawn) [Pomalidomide]	21.3	94.1	51.2	51.3	38.4	92.5	42.4	42.6	20.6	96.7	51.3	51.2	16.9	88.6	43.6	43.8
Nc1cccc2c1CN(C1CCC(=O)NC1=O)C2=O (stereo not drawn) [Lenalidomide]	39.6	107.4	54.9	49.6		83.0	81.5		20.6	97.8	58.7	54.1	18.5	90.4	51.9	50.9
Cc1cn(-c2cc(NC(=O)c3ccc(C)c(Nc4nccc(-c5cccnc5)n4)c3)cc(C(F)(F)F)c2)cn1 [Nilotinib]	47.8	101.2	107.8	108.6	28.5	96.7	94.9	96.7	52.5	100.3	110.2	114.5	44.6	97.1	108.0	110.3
CN(C)C(=O)c1cc2cnc(Nc3ccc(N4CCNCC4)cn3)nc2n1C1CCCC1 [Ribociclib]	49.7	98.0	94.2	92.7	30.6	87.3	79.3	81.3	50.5	98.8	95.0	93.5	41.5	84.9	84.8	83.3
Cc1ccc(C(=O)Nc2ccc(CN3CCN(C)CC3)c(C(F)(F)F)c2)cc1C#Cc1cnc2cccnn12 [Ponatinib]	48.3	96.6	98.7	98.1					50.8	100.1	99.8	102.6	43.1	93.3	97.8	98.9
COc1cc2nccc(Oc3ccc(NC(=O)Nc4cc(C)on4)c(Cl)c3)c2cc1OC [Tivozanib]	49.4	103.2	104.0	103.9	38.6	102.5	99.0	100.8	49.6	100.8	103.5	105.8	42.5	98.0	104.7	103.8
O=C(c1cc(Cc2n[nH]c(=O)c3ccccc23)ccc1F)N1CCN(C(=O)C2CC2)CC1 [Olaparib]	64.1	101.8	91.3	90.8	80.6	110.7	108.3	110.6	49.4	98.6	89.4	88.9	42.9	99.7	99.0	94.2
C[C@H]1Oc2cc(cnc2N)-c2c(nn(C)c2C#N)CN(C)C(=O)c2ccc(F)cc21 [Lorlatinib]	60.0	99.8	98.9	99.6	54.3	98.8	96.4	97.8	57.8	101.8	100.2	99.2	50.7	97.0	100.4	99.9
